Data as given in patent US20240382497A1, “PROPHYLACTIC OR THERAPEUTIC AGENT FOR HYPOXIC INJURY, ISCHAEMIA-REPERFUSION INJURY AND INFLAMMATION, CELL PROTECTION AGENT FOR TRANSPLANTATION, AND BIO-PRESERVATION AGENT” (priority 2018, published 2024).

Columns and labels:
Male C57/BL6N mice [1] = experiment: Body surface temperature on odor presentation (thermography); type: in vivo, mouse; details: filter paper scented with 271 μmol odor, mean of 20 min, versus no odor
Experimental: An influence of a thiazoline-related compound and an odor molecule that induces learned fear on the body surface temperature was analyzed. Male C57/BL6N mice (about 3 months old) were anesthetized with pentobarbital (50 mg/kg, i.p.) 2-3 days before the test, and the back hair was depilated with depilatory cream. On the day of testing, each mouse was placed in a test cage and, after acclimation for 10 min, a filter paper scented with 271 μmol of a thiazoline-related compound (2-methyl-2-thiazoline; 2MT) or an odor molecule that induces learned fear (anisole) was presented in the test cage, and changes in the body surface temperature on the back were analyzed using a thermography camera (NEC Avio). The value of the body surface temperature change was calculated as the difference between the mean body surface temperature for 10min when water was presented and the mean body surface temperature for 20 min when each odor molecule was presented, and the change in the body surface temperature without odor was set to 0. […]
An influence of various thiazoline-related compounds on the body surface temperature was analyzed by a method similar to that in Example 1. As a control, an influence of an odor molecule that induces learned fear was also analyzed. […]

Male C57/BL6N mice [2] = experiment: Core body temperature on odor presentation (radio-telemetry); type: in vivo, mouse; details: filter paper scented with 271 μmol odor, 20 min, versus no odor
Experimental: An influence of a thiazoline-related compound and an odor molecule that induces learned fear on the core body temperature was analyzed. A radio-telemetry device for monitoring biological parameters (manufactured by Physiotel) was surgically implanted in the abdomen of male C57/BL6N mice (about 3 months old). The mice were subjected to the following experiment after about 10 days of recovery period. Each mouse was placed in a test cage and, after acclimation for 10 min, a filter paper dropped with water was presented for 10 min, after which a filter paper scented with 271 μmol of a thiazoline-related compound (2-methyl-2-thiazoline; 2MT) or an odor molecule that induces learned fear (anisole) was presented for 20 min. The information of body temperature was recorded every 10 sec using Dataquest A.R.T. software (DataScience international). The value of the core body temperature change was calculated as the difference between the mean core body temperature for 10 min when water was presented and the mean core body temperature for 20 min when each odor molecule was presented, and the change in the core body temperature without odor was set to 0. The mice presented with the odor that induces learned fear were trained to associate the anisole odor with electric shock one day before the measurement, whereby the mice learned to feel learned fear against the smell of anisole.

Male C57/BL6N mice [3] = experiment: Heart rate on odor presentation (radio-telemetry); type: in vivo, mouse; details: filter paper scented with 271 μmol odor
Experimental: An influence of a thiazoline-related compound and an odor molecule that induces learned fear on the heart rate was analyzed. A radio-telemetry device for monitoring biological parameters (manufactured by Physiotel) was surgically implanted in the abdomen of male C57/BL6N mice (about 3 months old). The mice were subjected to the following experiment after about 10 days of recovery period. Each mouse was placed in a test cage and, after acclimation for 10 min, a filter paper dropped with water was presented for 10 min, after which a filter paper scented with 271μmol of a thiazoline-related compound (2-methyl-2-thiazoline; 2MT) or an odor molecule that induces learned fear (anisole) was presented for 20 min. The information of heart rate was recorded every 10 sec using Dataquest A.R.T. software (DataScience international). The value of the heart rate change was calculated as the difference between the heart rate for 10 min when water was presented and the mean heart rate for 20 min when each odor molecule was presented, and the change in the heart rate without odor was set to 0. The mice presented with the odor that induces learned fear were trained to associate the anisole odor with electric shock one day before the measurement, whereby the mice learned to feel learned fear against the smell of anisole.

Male C57/BL6N mice [4] = experiment: Skin blood flow on odor presentation (laser Doppler); type: in vivo, mouse; details: filter paper scented with 271 μmol odor, 20 min, versus no odor
Experimental: An influence of a thiazoline-related compound and an odor molecule that induces learned fear on the skin blood flow was analyzed. Male C57/BL6N mice (about 3 months old) were anesthetized with pentobarbital (50 mg/kg, i.p.) about 5 days before the test, and the back hair was depilated with depilatory cream. A mouse restrainer having an observation window was prepared using a 50 ml tube, the mice were trained to enter the restrainer from the day after hair removal, and acclimated by performing this operation until the day before the test. On the day of testing, each mouse was placed in a restrainer, and a laser Doppler probe was attached to the shaved back of the mouse with an adhesive tape. After confirming that the blood flow signal became stable, (1) no odor was presented for 10 min, (2) Eugenol odor was presented for 10 min, (3) thiazoline-related compound (2MT) or an odor that induces learned fear (Anis-FS+) was presented for 20 min, and changes in the blood flow were measured. […] The blood flow rate was measured every 10 seconds using a laser Doppler blood flow meter (ADVANCE CO., LTD. ALF21D). The mean skin blood flow without odor (10 min) or with the presentation of a thiazoline-related compound or an odor that induces learned fear (20 min) was calculated, and the mean skin blood flow was shown as a relative value with the mean skin blood flow without odor as 100%.

C57/BL6N male mice = experiment: Core body temperature under the odor conditions of Example 9; type: in vivo, mouse; details: odor presentation conditions of Example 9
Experimental: An influence of a thiazoline-related compound and an odor molecule that induces learned fear on the core body temperature was analyzed. A radio-telemetry device for monitoring biological parameters (manufactured by Physiotel) was surgically implanted in the abdomen of male C57/BL6N mice (about 3 months old). The mice were subjected to the following experiment after about 10 days of recovery period. […] The information of body temperature was recorded every 10 sec using Dataquest A.R.T. software (DataScience international). The value of the core body temperature change was calculated as the difference between the mean core body temperature for 10 min when water was presented and the mean core body temperature for 20 min when each odor molecule was presented, and the change in the core body temperature without odor was set to 0. […]
About 3-month-old C57/BL6N male mice were each placed in a highly sealed breeding cage, and a filter paper scented with 100 μl (104 mmol) of the thiazoline-related compound (2MT) was placed in the breeding cage, and the odor was presented for 50 min. After the odor was presented, the mice were placed in a tight box in which the oxygen concentration was adjusted to 4%, and the survival time of the mice was measured up to 30 min at maximum. As a control, the survival time of mice presented with a filter paper dropped with water was also measured (no odor). […]

[5] = tested on: Trpa1 knockout and littermate hetero mice; experiment: Survival time in 4% oxygen of Trpa1 knockout mouse after odor presentation; type: in vivo; details: 271 μmol odor presented 10 min, versus saline
Experimental: The thiazoline-related compound (2MT) was presented for 10 min to about 3-month-old male Trpa1 knockout and littermate hetero mice. Thereafter, the mice were placed in a tight box in which the oxygen concentration was adjusted to 4%, and the survival time of the mice was measured up to 30 min at maximum. The odor was presented by placing a filter paper scented with 271 μmol of 2MT in the breeding cage. As a control, an experiment presenting a filter paper dropped with saline was also performed (no odor).

CC1=NCCS1 [2MT, 2-methyl-2-thiazoline]
changes in the body surface temperature (Male C57/BL6N mice [1]): clear decrease in the body surface temperature | changes in the core body temperature (Male C57/BL6N mice [2]): clear decrease in the core body temperature | time to decrease in the heart rate to half (Male C57/BL6N mice [3]): ≤ 3 min | changes in the heart rate (Male C57/BL6N mice [3]; 20 min, versus no odor): clear decrease in the heart rate | skin blood flow (Male C57/BL6N mice [4]): decreased the skin blood flow | core body temperature (C57/BL6N male mice): remarkable decrease in the core body temperature | survival time in 4% oxygen [5]: did not increase significantly
